From patent US12202805B2, “Process for preparing (5S)-{[2-(4-carboxyphenyl)ethyl] |2-(2-{|3-chloro-4'-(trifluoromethyl)biphenyl-4-yl]methoxy}phenyl)ethyl]aminol-5,6,7,8-tetrahydroquinoline-2-carboxylic acid and its crystalline forms for use as pharmaceutically active compound” (Bayer Aktiengesellschaft, priority 2021, dated 2025)
“And” between values parts separate entries of the source, which are not always exact repeats. Equal entries are not always repeated.

System: thromboxane A2 challenged PAH-minipig
Assay: Haemodynamics in the anesthetized thromboxane challenged minipig, intratracheal dry powder (PAP, BP)
Format: in vivo, Göttingen Minipigs
Details: 375 μg/kg i.t.
Method: Healthy Göttingen Minipigs® Ellegaard (Ellegaard, Denmark) of both sexes and having a weight of 2-6 kg were used. The animals were sedated by i.m. administration of about 25 mg/kg ketamine and about 10 mg/kg azaperone. Anaesthesia was initiated by i.v. administration of about 2 mg/kg ketamine and about 0.3 mg/kg midazolam. Maintenance of anaesthesia was by i.v. administration of about 7.5-30 mg/kg/h ketamine and about 1-4 mg/kg/h midazolam (rate of infusion 1-4 ml/kg/h) and about 150 μg/kg/h pancuronium bromide (for example Pancuronium-Actavis). After intubation, the animals were ventilated by the ventilator at a constant respiratory volume (10-12 ml/kg, 35 breaths/min; Avea®, Viasys Healthcare, USA, or Engström Carestation, GE Healthcare, Freiburg, Germany) such that an end-tidal CO2 concentration of about 5% was achieved. Ventilation was performed with room air, enriched with about 40% oxygen (normoxia). For the measurement of the haemodynamic parameters such as pulmonary arterial pressure (PAP), blood pressure (BP) and heart rate (HR), catheters were inserted into the carotid artery to measure the blood pressure, and a Swan-Ganz® catheter was introduced in a flow-directed manner via the jugular vein into the pulmonary artery. The haemodynamic signals were recorded and evaluated by means of pressure transducers (Combitransducer, B. Braun, Melsungen, Germany)/amplifiers and Ponemah® as data acquisition software.
As reference pure Lactose vehicle was applied in the beginning of each experiment.

In the case of `O.O=C(O)c1ccc(CCN(CCc2ccccc2OCc2ccc(-c3ccc(C(F)(F)F)cc3)cc2Cl)[C@H]2CCCc3nc(C(=O)O)ccc32)cc1.O=C(O)c1ccc(CCN(CCc2ccccc2OCc2ccc(-c3ccc(C(F)(F)F)cc3)cc2Cl)[C@H]2CCCc3nc(C(=O)O)ccc32)cc1` [example 6a, (5S)—{[2-(4-Carboxyphenyl)ethyl][2-(2-{[3-chloro-4′-(trifluoromethyl)biphenyl-4-yl]methoxy}phenyl)-ethyl]amino}-5,6,7,8-tetrahydroquinoline-2-carboxylic acid semihydrate], the “PAP, % changes vs. prevalues” (time 160 min) is reported as 59.9% and 77.1% and 73.1%, the “BP (mean)” value (time 170 min) is reported as 95 mmHg and 79 mmHg and the “BP, % changes vs. prevalues” (time 170 min) is reported as 95.6% and 99.7% and 107.4%. For the same compound, the “PAP(mean)” value (time 170 min) was 24.0 mmHg and 32.4 mmHg and 29.9 mmHg, the “PAP, % changes vs. prevalues” (time 170 min) was 58.6% and 76.7% and 72.3% and the “BP (mean)” value (time 180 min) was 94 mmHg and 79 mmHg. The “BP, % changes vs. prevalues” (time 180 min) was 94.6% and 99.7% and 106.3%, the “PAP(mean)” value (time 180 min) was 23.7 mmHg and 31.9 mmHg and 29.7 mmHg and the “PAP, % changes vs. prevalues” (time 180 min) was 58.0% and 75.4% and 71.8%. The “BP (mean)” value (time 190 min) was 94 mmHg and 85 mmHg and 93 mmHg, the “BP, % changes vs. prevalues” (time 190 min) was 94.6% and 108.5% and 105.2% and the “PAP(mean)” value (time 190 min) was 24.4 mmHg and 32.4 mmHg and 29.2 mmHg. The “PAP, % changes vs. prevalues” (time 190 min) was 59.5% and 78.4% and 70.7%, the “BP (mean)” value (time 200 min) was 92 mmHg and 85 mmHg and the “BP, % changes vs. prevalues” (time 200 min) was 92.6% and 107.3% and 104.0%. The “PAP(mean)” value (time 200 min) was 24.8 mmHg and 32.4 mmHg and 29.4 mmHg, the “PAP, % changes vs. prevalues” (time 200 min) was 60.5% and 76.8% and 71.1% and the “BP (mean)” value (time 210 min) was 90 mmHg and 81 mmHg and 91 mmHg. For the same compound, the “BP, % changes vs. prevalues” (time 210 min) was 90.6% and 102.2% and 102.9%, the “PAP(mean)” value (time 210 min) was 24.8 mmHg and 31.9 mmHg and 29.2 mmHg and the “PAP, % changes vs. prevalues” (time 210 min) was 60.6% and 75.5% and 70.8%. For the same compound, the “BP (mean)” value (time 220 min) was 89 mmHg and 79 mmHg, the “BP, % changes vs. prevalues” (time 220 min) was 89.6% and 99.7% and 100.6% and the “PAP(mean)” value (time 220 min) was 24.7 mmHg and 31.7 mmHg and 29.1 mmHg. The “PAP, % changes vs. prevalues” (time 220 min) was 60.3% and 75.1% and 70.3%, the “BP (mean)” value (time 230 min) was 87 mmHg and 78 mmHg and 89 mmHg and the “BP, % changes vs. prevalues” (time 230 min) was 87.6% and 98.4% and 100.6%. The “PAP(mean)” value (time 230 min) was 24.0 mmHg and 31.3 mmHg and 28.6 mmHg, the “PAP, % changes vs. prevalues” (time 230 min) was 58.7% and 74.1% and 69.1% and the “BP (mean)” value (time 240 min) was 87 mmHg and 77 mmHg. The “BP, % changes vs. prevalues” (time 240 min) was 87.6% and 97.2% and 98.4%, the “PAP(mean)” value (time 240 min) was 24.1 mmHg and 31.3 mmHg and 28.1 mmHg and the “PAP, % changes vs. prevalues” (time 240 min) was 58.9% and 74.2% and 68.0%. For the same compound, the “BP (mean)” value (time 250 min) was 85 mmHg and 76 mmHg, the “BP, % changes vs. prevalues” (time 250 min) was 85.5% and 95.9% and 96.1% and the “PAP(mean)” value (time 250 min) was 24.2 mmHg and 30.7 mmHg and 28.1 mmHg. For the same compound, the “PAP, % changes vs. prevalues” (time 250 min) was 59.0% and 72.7% and 67.9%, the “BP (mean)” value (time 260 min) was 85 mmHg and 76 mmHg and 84 mmHg and the “BP, % changes vs. prevalues” (time 260 min) was 85.5% and 95.9% and 95.0%. The “PAP(mean)” value (time 260 min) was 24.1 mmHg and 30.6 mmHg and 28.1 mmHg, the “PAP, % changes vs. prevalues” (time 260 min) was 58.8% and 72.5% and 68.0% and the “BP (mean)” value (time 270 min) was 85 mmHg and 76 mmHg and 87 mmHg. The “BP, % changes vs. prevalues” (time 270 min) was 85.5% and 95.9% and 98.4%, the “PAP(mean)” value (time 270 min) was 24.4 mmHg and 30.6 mmHg and 27.8 mmHg and the “PAP, % changes vs. prevalues” (time 270 min) was 59.6% and 72.4% and 67.3%. For the same compound, the “BP (mean)” value (time 280 min) was 85 mmHg and 75 mmHg and 84 mmHg, the “BP, % changes vs. prevalues” (time 280 min) was 85.5% and 94.6% and 95.0% and the “PAP(mean)” value (time 280 min) was 24.3 mmHg and 30.7 mmHg and 28.0 mmHg. The “PAP, % changes vs. prevalues” (time 280 min) was 59.3% and 72.6% and 67.8%, the “BP (mean)” value (time 290 min) was 84 mmHg and 75 mmHg and 83 mmHg and the “BP, % changes vs. prevalues” (time 290 min) was 84.5% and 94.6% and 93.9%. For the same compound, the “PAP(mean)” value (time 290 min) was 24.1 mmHg and 30.7 mmHg and 27.6 mmHg, the “PAP, % changes vs. prevalues” (time 290 min) was 58.8% and 72.6% and 66.7% and the “BP (mean)” value (time 300 min) was 83 mmHg and 77 mmHg and 82 mmHg. The “BP, % changes vs. prevalues” (time 300 min) was 83.5% and 97.2% and 92.7%, the “PAP(mean)” value (time 300 min) was 23.7 mmHg and 30.5 mmHg and 27.7 mmHg and the “PAP, % changes vs. prevalues” (time 300 min) was 57.9% and 72.2% and 67.1%.
